In patent publication US12551424B2, “Oil-in-water type emulsification composition containing UV wavelength conversion substance” (Shiseido Company, Ltd., priority 2019, dated 2026):

What was measured:
[1] = tested on: Human dermal fibroblasts; assay: Cell activity (AlamarBlue) after UV irradiation through a solution of the UV wavelength conversion substance; assay type: cell-based; details: UV 0, 10, 25, 50, 75 or 100 mJ/cm^2, FIG. 3
Procedure: (§1) A cell sample was prepared as follows: • 1. Human dermal fibroblasts and human skin keratinocytes purchased from Kurabo Industries Ltd. were used. A cell suspension (1 mL) stored in liquid nitrogen was thawed in a water bath (37° C.) to an extent that small ice pellets remained, and then diluted with 9 mL of warm medium. • 2. The diluted suspension was mixed gently and then transferred to a T75 flask and incubated overnight at 37° C. • 3. The next day, the medium was replaced with 10 mL of fresh medium. • 4. The medium was replaced periodically (once every 2 days for fibroblasts and once every 2 to 3 days for keratinocytes) and cell proliferation was continued. Meanwhile, the cells were observed using a microscope, and it was confirmed that the cells grew in the correct form. • 5. After the cells reached about 80% confluence, the cells were passaged. The cells were passaged by washing the cells once with 10 mL of warm PBS, adding 5 mL of warm trypsin to a T75 flask, covering the bottom of the flask with a trypsin solution, followed by aspirating at room temperature for 1 minute. • 6. The flask was allowed to stand in an oven at 37° C. for (maximum) 2 minutes for fibroblasts and (maximum) 7 minutes for keratinocytes. The cells were observed using a microscope and confirmed to be small and oval. • 7. Thereafter, the side of the T75 flask was lightly tapped to release the cells. […]

[2] = tested on: Human dermal fibroblasts; assay: Restoration of cell activity decreased by prior UV irradiation (AlamarBlue); assay type: cell-based; details: FIG. 5
Procedure: as §1

Substance: C-phycocyanin
- cell activity (relative fluorescence intensity) ([1]; 0.4% C-phycocyanin solution): the decrease in cell activity was suppressed
- cell activity (relative fluorescence intensity) ([1]; 2% C-phycocyanin solution): the cell activity was even increased
- cell activity recovery effect, comparison of concentrations ([2]; 0.4% versus 2% C-phycocyanin after 400 mJ/cm^2 pre-irradiation): equivalent at concentrations of 0.4% and 2%
- cell activity (relative fluorescence intensity) of cells with once decreased activity ([2]; pre-irradiation 400 mJ/cm^2 without substance, then UV 0-200 mJ/cm^2 through 0.4% or 2% C-phycocyanin): cell activity was recovered
